Earlier results on one molecule are cited in patent US9110064B2, “Methods for diagnosis and treatment of endometrial cancer” (THE REGENTS OF THE UNIVERSITY OF CALIFORNIA, priority 2005, dated 2015).

In the series the test system is PMP22. To be noted: patients with Charcot Marie Tooth Type I.

For the molecule `CC(=O)[C@H]1CC[C@H]2[C@@H]3CCC4=CC(=O)CC[C@]4(C)[C@H]3CC[C@]12C` [progesterone], the PMP22 levels result is on record as “restore normal PMP22 levels” and the disease phenotype result is recorded as “ameliorated the disease phenotype”.
